# Test results from patent US20020193587A1, “Penicillin crystal and process for producing the same” (priority 2000, published 2002).
# Assay: Storage stability in sealed test tubes at room temperature for 1 year, purity determined by HPLC
# Type: physicochemical
# Settings: 10 g in sealed test tube, stored at room temperature (5 to 35° C.) for 1 year, starting purity 100% (Examples 1, 2), 79% (Comparative Example 1), 93% (Comparative Example 2)
# Procedure: A test tube was charged with 10 g of each of the TAZB crystal of Example 1 (purity 100%), the TAZB crystal of Example 2 (purity 100%), the TAZB oily substance of Comparative Example 1 (purity 79%), and the TAZB amorphous powder of Comparative Example 2 (purity 93%). The test tubes were sealed and stored at room temperature (5 to 35° C.) for 1 year after which their purity was determined by HPLC.
row,Substance,purity after storage
1,"diphenylmethyl 2-methyl-2-triazolylmethylpenam-3-carboxylate 1,1-dioxide [Example 2]",99%
2,"diphenylmethyl 2-methyl-2-triazolylmethylpenam-3-carboxylate 1,1-dioxide [Comparative Example 2]",81%
3,"diphenylmethyl 2-methyl-2-triazolylmethylpenam-3-carboxylate 1,1-dioxide [Comparative Example 1]",52%
